Assay results taken from ChEMBL document CHEMBL2021786, “The discovery of 2-fluoro-N-(3-fluoro-4-(5-((4-morpholinobutyl)amino)-1,3,4-oxadiazol-2-yl)phenyl)benzamide, a full agonist of the alpha-7 nicotinic acetylcholine receptor showing efficacy in the novel object recognition model of cognition enhancement” (Bioorg Med Chem Lett, 2012).
Each block holds one compound with its values, some of them ahead of it.

Key:
[1] = Tmax in po dosed rat; assay type: ADME, organism-based; conditions: in vivo
MDR1 = assay: Intrinsic permeability of the compound in MDCK cells expressing MDR1; assay type: ADME, cell-based, Canis lupus familiaris; conditions: dog
Liver [2] = assay: Clearance in human liver assessed per gram of tissue; assay type: ADME, tissue-based
[3] = Oral bioavailability in Sprague-Dawley rat at 3 mg/kg; assay type: ADME, organism-based; conditions: in vivo
[4] = Ratio of drug level in brain to blood in CD1 mouse at 5 mg/kg, po after 3 hrs; assay type: ADME, organism-based; set-up: dose 5 mg/kg, route oral
[5] = Tmax in Sprague-Dawley rat at 3 mg/kg, po; assay type: ADME, organism-based; set-up: dose 3 mg/kg, route oral; conditions: in vivo
[6] = Blood clearance in Sprague-Dawley rat at 1 mg/kg, iv; assay type: ADME, organism-based; set-up: dose 1 mg/kg, route intravenous
Liver [7] = assay: Clearance in rat liver assessed per gram of tissue; assay type: ADME, tissue-based; conditions: in vivo
[8] = Half life in Sprague-Dawley rat at 1 mg/kg, iv; assay type: ADME, organism-based; set-up: dose 1 mg/kg, route intravenous; conditions: in vivo
Blood = assay: Drug level in novel object recognition model of rat blood at 0.1 mg/kg, po; assay type: ADME, organism-based; set-up: dose 0.1 mg/kg, route oral; conditions: in vivo, read-out: Drug uptake
[9] = Ratio of drug level in brain to blood in Lister Hooded rat at 3 mg/kg, po after 3 hrs; assay type: ADME, organism-based; set-up: dose 3 mg/kg, route oral

CLH (Liver [2]): < 0.5 mL/min/g
bioavailability [3]: 22%
Kp at 3 h [4]: 0.62
Tmax [5]: 1 h
clearance [6]: 37 mL/min/kg
CLH (Liver [7]): 0.8 mL/min/g
half-life [8]: 1.6 h
Papp (MDR1): 75.6 ×10⁻⁶ cm/s
SMILES: O=C(Nc1ccc(-c2nnc(NCCCCN3CCOCC3)o2)cc1)c1ccccc1F

Papp (MDR1): 70.3 ×10⁻⁶ cm/s
SMILES: O=C(Nc1ccc(-c2nnc(NCCCCN3CCC(F)CC3)o2)cc1)c1ccccc1F

Papp (MDR1): 25.1 ×10⁻⁶ cm/s
SMILES: COc1cc(NC(=O)c2ccccc2F)ccc1-c1nnc(NCCCCN2CCCCC2)o1

Papp (MDR1): 33.7 ×10⁻⁶ cm/s
SMILES: O=C(Nc1ccc(-c2nnc(NCCCCN3CCCCC3)o2)cc1)c1ccccc1

Papp (MDR1): 28.5 ×10⁻⁶ cm/s
SMILES: O=C(Nc1ccc(-c2nnc(NCCCCN3CCOCC3)o2)c(F)c1)c1ccccc1

CLH (Liver [2]): 0.5 mL/min/g
clearance [6]: 42 mL/min/kg
Kp at 3 h [9]: 0.99
CLH (Liver [7]): < 0.5 mL/min/g
half-life [8]: 2.7 h
Papp (MDR1): 127 ×10⁻⁶ cm/s
SMILES: O=C(Nc1ccc(-c2nnc(NCCCCN3CCCCC3)o2)cc1)c1ccccc1F

Second part, the compound before the results:

SMILES: COc1cc(NC(=O)c2ccccc2F)ccc1-c1nnc(NCCCN2CCCCC2)o1
Tmax [1]: 3 h

SMILES: COc1cc(NC(=O)c2ccccc2F)ccc1-c1nnc(NCCCCN2CCOCC2)o1
Papp (MDR1): 57.3 ×10⁻⁶ cm/s

SMILES: O=C(Nc1ccc(-c2nnc(NCCCCN3CCOCC3)o2)c(F)c1)c1ccccc1F
CLH (Liver [2]): < 0.5 mL/min/g
bioavailability [3]: 20%
concentration (Blood): 10.5 nM
Kp at 3 h [4]: 0.53
Tmax [5]: 1 h
clearance [6]: 54 mL/min/kg
CLH (Liver [7]): < 0.5 mL/min/g
Papp (MDR1): 73.6 ×10⁻⁶ cm/s

SMILES: O=C(Nc1ccc(-c2nnc(NCCCCN3CCCCC3)o2)cc1)C1CCCCC1
Papp (MDR1): 9.8 ×10⁻⁶ cm/s

SMILES: O=C(Nc1ccc(-c2nnc(NCCCN3CCN4CCC3CC4)o2)cc1)c1ccccc1F
Papp (MDR1): 4.2 ×10⁻⁶ cm/s
